Data reported in ChEMBL document CHEMBL1127893, “Bisindolylmaleimide inhibitors of protein kinase C. Further conformational restriction of a tertiary amine side chain” (Bioorg Med Chem Lett, 1994).

Tests used:
[1] = molecular target: Protein kinase C (PKC); assay: Inhibition of protein kinase C (PKC); type: protein assay
[2] = molecular target: Phosphorylase kinase; assay: Inhibition of phosphorylase kinase (PhK); type: protein-complex assay
[3] = molecular target: cAMP-dependent protein kinase (PKA) (Homo sapiens, UniProt P22694+P17612+P22612); assay: Inhibition of cyclic AMP dependent protein kinase A (PKA); type: protein assay
[4] = molecular target: Protein kinase C alpha type (Rattus norvegicus, UniProt P05696); assay: Inhibition of Protein kinase C alpha
[5] = molecular target: Protein kinase C (PKC); assay: Inhibition of protein kinase C from rat brain (PKC)
[6] = molecular target: T1, Protein kinase C beta type (Rattus norvegicus, UniProt P68403); assay: Inhibition of Protein kinase C beta
T1 sequence (P68403 whole entry): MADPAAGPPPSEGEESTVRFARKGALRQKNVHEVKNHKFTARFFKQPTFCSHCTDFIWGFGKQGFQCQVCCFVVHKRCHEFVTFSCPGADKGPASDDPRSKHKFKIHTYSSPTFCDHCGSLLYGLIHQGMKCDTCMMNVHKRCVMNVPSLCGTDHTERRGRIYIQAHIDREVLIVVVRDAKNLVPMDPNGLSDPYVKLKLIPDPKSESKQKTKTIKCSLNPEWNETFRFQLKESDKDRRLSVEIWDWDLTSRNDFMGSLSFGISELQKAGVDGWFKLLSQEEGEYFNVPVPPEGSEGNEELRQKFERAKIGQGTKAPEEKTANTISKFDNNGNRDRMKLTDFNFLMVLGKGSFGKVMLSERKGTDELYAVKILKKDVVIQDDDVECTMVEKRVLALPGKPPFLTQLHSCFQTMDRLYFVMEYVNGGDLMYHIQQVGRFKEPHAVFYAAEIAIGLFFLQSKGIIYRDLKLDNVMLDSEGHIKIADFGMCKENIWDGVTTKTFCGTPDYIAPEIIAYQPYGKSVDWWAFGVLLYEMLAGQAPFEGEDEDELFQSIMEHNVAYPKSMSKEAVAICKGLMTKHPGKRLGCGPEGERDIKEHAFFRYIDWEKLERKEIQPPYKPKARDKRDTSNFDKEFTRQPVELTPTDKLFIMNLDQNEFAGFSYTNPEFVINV

[7] = molecular target: T1, Protein kinase C beta type; assay: Inhibition of Protein kinase C beta 1
[8] = molecular target: T2, Protein kinase C epsilon type (Rattus norvegicus, UniProt P09216); assay: Inhibition of Protein kinase C epsilon
T2 sequence (P09216 whole entry): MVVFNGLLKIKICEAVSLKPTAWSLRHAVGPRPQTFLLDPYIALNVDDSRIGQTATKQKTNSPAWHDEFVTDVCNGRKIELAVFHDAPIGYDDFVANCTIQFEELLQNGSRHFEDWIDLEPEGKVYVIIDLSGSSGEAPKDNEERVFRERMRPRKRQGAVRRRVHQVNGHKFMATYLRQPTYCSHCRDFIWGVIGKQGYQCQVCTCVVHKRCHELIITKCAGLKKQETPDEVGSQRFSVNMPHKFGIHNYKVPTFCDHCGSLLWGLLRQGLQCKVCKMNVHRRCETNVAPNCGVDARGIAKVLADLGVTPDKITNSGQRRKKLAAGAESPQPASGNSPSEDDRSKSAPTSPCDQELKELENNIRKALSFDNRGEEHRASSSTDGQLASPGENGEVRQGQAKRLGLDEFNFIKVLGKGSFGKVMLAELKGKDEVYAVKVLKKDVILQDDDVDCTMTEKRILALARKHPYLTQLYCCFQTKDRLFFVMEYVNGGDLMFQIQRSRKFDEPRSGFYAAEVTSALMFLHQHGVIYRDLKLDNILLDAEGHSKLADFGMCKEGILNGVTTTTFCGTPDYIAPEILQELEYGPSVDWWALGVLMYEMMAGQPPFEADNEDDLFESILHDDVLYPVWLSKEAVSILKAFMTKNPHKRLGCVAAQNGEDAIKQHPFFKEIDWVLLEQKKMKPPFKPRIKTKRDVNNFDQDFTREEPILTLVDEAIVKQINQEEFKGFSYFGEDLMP

[9] = molecular target: Protein kinase C gamma type (Rattus norvegicus, UniProt P63319); assay: Inhibition of Protein kinase C gamma (PKC)

Row | Compound | IC50 [1] [nM] | IC50 [2] [nM] | IC50 [3] [nM] | IC50 [4] [nM] | IC50 [5] [nM] | IC50 [6] [nM] | IC50 [7] [nM] | IC50 [8] [nM] | IC50 [9] [nM]
1 | CN1C[C@@H]2Cn3c(c(C4=C(c5cn(C)c6ccccc56)C(=O)NC4=O)c4ccccc43)C[C@H]2C1.Cl (stereo in doubt; form 2) | 8 | 3800 | 5500 |  |  |  |  |  | 
2 | CN1C[C@@H]2Cn3c(c(C4=C(c5cn(C)c6ccccc56)C(=O)NC4=O)c4ccccc43)C[C@H]2C1.Cl (stereo in doubt; form 1) | 5 | 1690 | 2800 | 2.85 | 6.8 | 6.8 | 5.3 | 48 | 5.4
3 | CN(C)C[C@H]1CCn2c(c(C3=C(c4cn(C)c5ccccc45)C(=O)NC3=O)c3ccccc32)C1 [RO-320432] |  | 15600 | 223375 | 8.8 | 21 | 30.5 | 28 | 105 | 36.5
